Source: patent US12589156B2, “Benzimidazole and benzimidazolone based protac compounds for the targeted degradation of leucine rich repeat kinase 2 (LRRK2)” (Arvinas Operations, Inc., priority 2023, dated 2026)

Target: T1, WT LRRK2 (Homo sapiens, UniProt Q5S007)
T1 construct: endogenous in cells; host or cells: HEK293 (endogenous LRRK2 gene knock-in tagged with HiBit; stably expressing CMV-driven firefly luciferase)
Assay: LRRK2 HiBit degradation assay (Nano-Glo Dual Luciferase) in HEK293 cells with HiBit-tagged endogenous LRRK2
Assay type: cell-based
Details: for Dmax / WT LRRK2 **Dmax (%): maximal degradation
Summary of the method: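 HEK293 cells carrying endogenous C-terminally HiBit-tagged LRRK2 and stably expressing CMV-driven firefly luciferase were treated for 24 h at 37° C with an 11-point 1:3 series from a 1 μM final top concentration. Nano-Glo Dual Luciferase read LRRK2-HiBit against firefly signal. Alamar Blue gave viability, and signals were normalized to DMSO median before curve fitting.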

[1] = HEK293, Table 2, HiBit-tagged LRRK2 in HEK293 cells, 24 hours treatment
[2] = HEK293, Table 3, comparison with direct comparators
[3] = Table 2, HiBit-tagged LRRK2 in HEK293 cells, 24 hours treatment, starting concentration 1 μM
[4] = Table 3, comparison with direct comparators, HiBit-tagged LRRK2 in HEK293 cells, 24 hours treatment
[5] = Table 2, HiBit-tagged LRRK2 in HEK293 cells, 24 hours treatment

T1 sequence (Q5S007 whole entry): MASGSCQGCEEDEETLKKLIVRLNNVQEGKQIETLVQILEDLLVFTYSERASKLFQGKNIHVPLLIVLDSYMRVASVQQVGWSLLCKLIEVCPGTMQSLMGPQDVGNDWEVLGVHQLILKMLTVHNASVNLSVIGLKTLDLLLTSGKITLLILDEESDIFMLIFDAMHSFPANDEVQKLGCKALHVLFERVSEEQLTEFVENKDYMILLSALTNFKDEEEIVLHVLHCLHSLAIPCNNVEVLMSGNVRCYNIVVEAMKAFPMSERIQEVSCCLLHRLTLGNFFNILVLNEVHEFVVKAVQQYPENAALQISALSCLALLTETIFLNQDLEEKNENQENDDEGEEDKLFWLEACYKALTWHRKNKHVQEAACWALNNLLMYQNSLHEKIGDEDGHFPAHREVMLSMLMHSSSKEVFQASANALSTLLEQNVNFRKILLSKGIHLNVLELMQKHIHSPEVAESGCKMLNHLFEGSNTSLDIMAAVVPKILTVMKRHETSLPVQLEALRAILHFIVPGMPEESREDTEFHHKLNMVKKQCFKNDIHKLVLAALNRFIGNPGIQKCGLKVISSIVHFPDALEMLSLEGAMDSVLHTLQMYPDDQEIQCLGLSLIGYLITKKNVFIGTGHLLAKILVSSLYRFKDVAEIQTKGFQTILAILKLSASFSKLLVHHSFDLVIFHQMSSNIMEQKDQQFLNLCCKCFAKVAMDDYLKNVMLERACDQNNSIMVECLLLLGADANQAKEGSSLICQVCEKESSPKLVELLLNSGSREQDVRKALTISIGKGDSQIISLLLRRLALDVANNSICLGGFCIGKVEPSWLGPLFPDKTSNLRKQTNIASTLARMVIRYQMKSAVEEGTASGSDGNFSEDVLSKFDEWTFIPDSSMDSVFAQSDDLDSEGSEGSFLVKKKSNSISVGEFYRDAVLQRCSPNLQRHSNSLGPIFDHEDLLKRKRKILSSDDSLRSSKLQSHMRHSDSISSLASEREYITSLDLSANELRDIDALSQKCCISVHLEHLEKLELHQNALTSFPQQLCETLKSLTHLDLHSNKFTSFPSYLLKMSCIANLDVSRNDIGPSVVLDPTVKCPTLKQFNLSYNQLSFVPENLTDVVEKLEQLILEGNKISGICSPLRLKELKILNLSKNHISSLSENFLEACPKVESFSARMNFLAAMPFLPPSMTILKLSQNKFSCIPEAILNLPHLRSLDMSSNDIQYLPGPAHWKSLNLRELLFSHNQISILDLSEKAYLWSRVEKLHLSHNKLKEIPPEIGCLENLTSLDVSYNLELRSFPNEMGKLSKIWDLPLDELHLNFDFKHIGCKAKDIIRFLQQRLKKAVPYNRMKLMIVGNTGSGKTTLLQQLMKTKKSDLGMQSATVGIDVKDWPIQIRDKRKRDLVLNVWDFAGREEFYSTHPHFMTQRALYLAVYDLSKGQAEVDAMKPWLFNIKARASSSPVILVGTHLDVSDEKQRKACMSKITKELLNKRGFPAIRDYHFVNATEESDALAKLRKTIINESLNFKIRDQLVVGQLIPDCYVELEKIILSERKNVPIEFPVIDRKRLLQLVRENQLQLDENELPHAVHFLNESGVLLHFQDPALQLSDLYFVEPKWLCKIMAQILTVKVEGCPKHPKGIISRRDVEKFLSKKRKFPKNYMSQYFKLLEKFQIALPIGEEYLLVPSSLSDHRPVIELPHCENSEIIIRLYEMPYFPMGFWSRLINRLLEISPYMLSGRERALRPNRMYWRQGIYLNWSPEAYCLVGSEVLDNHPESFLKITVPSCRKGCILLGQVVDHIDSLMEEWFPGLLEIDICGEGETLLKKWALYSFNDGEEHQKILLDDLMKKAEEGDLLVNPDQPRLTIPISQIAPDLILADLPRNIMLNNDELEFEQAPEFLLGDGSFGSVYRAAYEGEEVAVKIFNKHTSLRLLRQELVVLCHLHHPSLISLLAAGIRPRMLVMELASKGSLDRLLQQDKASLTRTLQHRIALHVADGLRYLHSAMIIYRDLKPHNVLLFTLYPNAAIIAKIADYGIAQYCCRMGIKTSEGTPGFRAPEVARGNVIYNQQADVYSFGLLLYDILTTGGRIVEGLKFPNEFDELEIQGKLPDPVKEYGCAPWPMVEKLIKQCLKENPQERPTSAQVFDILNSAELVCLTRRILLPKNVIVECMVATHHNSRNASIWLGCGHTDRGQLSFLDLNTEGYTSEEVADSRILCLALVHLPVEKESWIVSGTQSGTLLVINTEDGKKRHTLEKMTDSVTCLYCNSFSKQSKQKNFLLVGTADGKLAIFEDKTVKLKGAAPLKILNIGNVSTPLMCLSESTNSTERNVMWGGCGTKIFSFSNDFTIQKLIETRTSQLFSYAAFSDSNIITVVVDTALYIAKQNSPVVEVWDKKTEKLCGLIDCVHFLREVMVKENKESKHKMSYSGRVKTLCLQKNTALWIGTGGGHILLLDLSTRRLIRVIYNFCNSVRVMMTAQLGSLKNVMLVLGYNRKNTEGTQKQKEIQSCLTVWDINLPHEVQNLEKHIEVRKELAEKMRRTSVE

SMILES | Dmax [1] [%] | Dmax [2] [%] | DC50 [3] [nM] | DC50 [4] [nM] | WT LRRK2 **Dmax (%) [5] [%]
CC1(Oc2ccc3[nH]nc(-c4cc(N5CCC(CN6CCN(CC7CCN(c8ccc9ncn(C%10CCC(=O)NC%10=O)c9c8)CC7)CC6(C)C)CC5)ncn4)c3c2)CC1 (stereo not shown) [Compound 10, 3-{6-[4-({3,3-dimethyl-4-[(1-{6-[5-(1-methylcyclopropoxy)-1H-indazol-3-yl]pyrimidin-4-yl}piperidin-4-yl)methyl]piperazin-1-yl}methyl)piperidin-1-yl]-1H-1,3-benzodiazol-1-yl}piperidine-2,6-dione] | 69 | – | 4.5 | – | –
Cn1c(=O)n(C2CCC(=O)NC2=O)c2cc(N3CCC(CN4CCN(CC5CCN(c6cc(-c7n[nH]c8ccc(OC9(C)CC9)cc78)ncn6)CC5)CC4)CC3)ccc21 (stereo not shown) [Compound 16, 3-{3-methyl-6-[4-({4-[(1-{6-[5-(1-methylcyclopropoxy)-1H-indazol-3-yl]pyrimidin-4-yl}piperidin-4-yl)methyl]piperazin-1-yl}methyl)piperidin-1-yl]-2-oxo-2,3-dihydro-1H-1,3-benzodiazol-1-yl}piperidine-2,6-dione] | – | – | ≥ 1000 | – | –
Cn1c(=O)n(C2CCC(=O)NC2=O)c2cc(N3CCC(CN4CCN(CC5CCN(c6cc(-c7n[nH]c8ccc(OC9(C)CC9)cc78)ncn6)CC5)C(C)(C)C4)CC3)ccc21 (stereo not shown) [Compound 17, 3-{6-[4-({3,3-dimethyl-4-[(1-{6-[5-(1-methylcyclopropoxy)-1H-indazol-3-yl]pyrimidin-4-yl}piperidin-4-yl)methyl]piperazin-1-yl}methyl)piperidin-1-yl]-3-methyl-2-oxo-2,3-dihydro-1H-1,3-benzodiazol-1-yl}piperidine-2,6-dione] | – | – | ≥ 1000 | – | –
Cn1c(=O)n(C2CCC(=O)NC2=O)c2ccc(N3CCC(OC4CCC(OC5CCN(c6cc(-c7n[nH]c8cnc(OC9(C)CC9)cc78)ncn6)CC5)CC4)CC3)cc21 (stereo not drawn) [Compound 25, rel-3-[3-methyl-2-oxo-5-(4-{[(1r,4r)-4-[(1-{6-[5-(1-methylcyclopropoxy)-1H-pyrazolo[3,4-c]pyridin-3-yl]pyrimidin-4-yl}piperidin-4-yl)oxy]cyclohexyl]oxy}piperidin-1-yl)-2,3-dihydro-1H-1,3-benzodiazol-1-yl]piperidine-2,6-dione] | – | – | 0.32 | – | 48
CC(C)n1c(=O)n(C2CCC(=O)NC2=O)c2ccc(N3CCC(OC4CCC(OC5CCN(c6cc(-c7n[nH]c8cnc(OC9(C)CC9)cc78)ncn6)CC5)CC4)CC3)cc21 (stereo not drawn) [Compound 26, rel-3-[2-oxo-3-(propan-2-yl)-5-(4-{[(1r,4r)-4-[(1-{6-[5-(1-methylcyclopropoxy)-1H-pyrazolo[3,4-c]pyridin-3-yl]pyrimidin-4-yl}piperidin-4-yl)oxy]cyclohexyl]oxy}piperidin-1-yl)-2,3-dihydro-1H-1,3-benzodiazol-1-yl]piperidine-2,6-dione] | – | – | 1.1 | – | 69
CC(C)Oc1cc2c(-c3cc(N4CCC(OC5CCC(OC6CCN(c7ccc8c(c7)n(C)c(=O)n8C7CCC(=O)NC7=O)CC6)CC5)CC4)ncn3)n[nH]c2cn1 (stereo not shown) [Compound 28] | – | – | 17 | – | 60
CC1(Oc2ccc3[nH]nc(-c4cc(N5CCC(CN6CCN(CC7CCN(c8cc(F)c9c(c8)ncn9C8CCC(=O)NC8=O)CC7)CC6(C)C)CC5)ncn4)c3c2)CC1 (stereo not shown) [Compound 39, 3-{5-[4-({3,3-dimethyl-4-[(1-{6-[5-(1-methylcyclopropoxy)-1H-indazol-3-yl]pyrimidin-4-yl}piperidin-4-yl)methyl]piperazin-1-yl}methyl)piperidin-1-yl]-7-fluoro-1H-1,3-benzodiazol-1-yl}piperidine-2,6-dione] | 56 | 56 | 4.9 | 4.9 | –
CC1(Oc2ccc3[nH]nc(-c4cc(N5CCC(CN6CCN(CC7CCN(c8cc9ncn(C%10CCC(=O)NC%10=O)c9cc8F)CC7)CC6(C)C)CC5)ncn4)c3c2)CC1 (stereo not shown) [Compound 40, 3-{5-[4-({3,3-dimethyl-4-[(1-{6-[5-(1-methylcyclopropoxy)-1H-indazol-3-yl]pyrimidin-4-yl}piperidin-4-yl)methyl]piperazin-1-yl}methyl)piperidin-1-yl]-6-fluoro-1H-1,3-benzodiazol-1-yl}piperidine-2,6-dione] | 59 | 59 | 4.2 | 4.2 | –

More lines, in order of falling DC50 [3], values ahead:

Dmax [1] [%] | Dmax [2] [%] | DC50 [3] [nM] | DC50 [4] [nM] | SMILES | WT LRRK2 **Dmax (%) [5] [%]
74 | – | 3.9 | – | Cn1c(=O)n(C2CCC(=O)NC2=O)c2cccc(C#CCOC3CCN(CC4CCN(c5cc(-c6n[nH]c7ccc(OC8(C)CC8)cc67)ncn5)CC4)CC3)c21 (stereo not shown) [Compound 18, 3-{3-methyl-4-[3-({1-[(1-{6-[5-(1-methylcyclopropoxy)-1H-indazol-3-yl]pyrimidin-4-yl}piperidin-4-yl)methyl]piperidin-4-yl}oxy)prop-1-yn-1-yl]-2-oxo-2,3-dihydro-1H-1,3-benzodiazol-1-yl}piperidine-2,6-dione] | –
62 | 62 | 1.6 | 1.6 | CC1(Oc2ccc3[nH]nc(-c4cc(N5CCC(CN6CCN(CC7CCN(c8ccc9c(c8)ncn9C8CCC(=O)NC8=O)CC7)CC6)CC5)ncn4)c3c2)CC1 (stereo not shown) [Compound 11, 3-{5-[4-({4-[(1-{6-[5-(1-methylcyclopropoxy)-1H-indazol-3-yl]pyrimidin-4-yl}piperidin-4-yl)methyl]piperazin-1-yl}methyl)piperidin-1-yl]-1H-1,3-benzodiazol-1-yl}piperidine-2,6-dione] | –
59 | 59 | 1.5 | 1.5 | Cn1c(=O)n(C2CCC(=O)NC2=O)c2cccc(N3CCC(CN4CCN(CC5CCN(c6cc(-c7n[nH]c8ccc(OC9(C)CC9)cc78)ncn6)CC5)CC4)CC3)c21 (stereo not shown) [Compound 15, 3-{3-methyl-4-[4-({4-[(1-{6-[5-(1-methylcyclopropoxy)-1H-indazol-3-yl]pyrimidin-4-yl}piperidin-4-yl)methyl]piperazin-1-yl}methyl)piperidin-1-yl]-2-oxo-2,3-dihydro-1H-1,3-benzodiazol-1-yl}piperidine-2,6-dione] | –
65 | 65 | 1.2 | 1.2 | Cn1c(=O)n(C2CCC(=O)NC2=O)c2cccc(N3CCC(CN4CCN(CC5CCN(c6cc(-c7n[nH]c8ccc(OC9(C)CC9)cc78)ncn6)CC5)C(C)(C)C4)CC3)c21 (stereo not shown) [Compound 8, 3-{4-[4-({3,3-dimethyl-4-[(1-{6-[5-(1-methylcyclopropoxy)-1H-indazol-3-yl]pyrimidin-4-yl}piperidin-4-yl)methyl]piperazin-1-yl}methyl)piperidin-1-yl]-3-methyl-2-oxo-2,3-dihydro-1H-1,3-benzodiazol-1-yl}piperidine-2,6-dione] | –
66 | 66 | 1.2 | 1.2 | Cn1c(=O)n(C2CCC(=O)NC2=O)c2cccc(N3CCC(O[C@H]4CC[C@H](CN5CCN(c6cc(-c7n[nH]c8ccc(OC9(C)CC9)cc78)ncn6)CC5)CC4)CC3)c21 (stereo partly shown) [Compound 9, 3-[3-methyl-2-oxo-4-(4-{[(1r,4r)-4-[(4-{6-[5-(1-methylcyclopropoxy)-1H-indazol-3-yl]pyrimidin-4-yl}piperazin-1-yl)methyl]cyclohexyl]oxy}piperidin-1-yl)-2,3-dihydro-1H-1,3-benzodiazol-1-yl]piperidine-2,6-dione] | –
53 | 53 | 1.2 | 1.2 | Cc1nc2cc(N3CCC(CN4CCN(CC5CCN(c6cc(-c7n[nH]c8ccc(OC9(C)CC9)cc78)ncn6)CC5)C(C)(C)C4)CC3)ccc2n1C1CCC(=O)NC1=O (stereo not shown) [Compound 38, 3-{5-[4-({3,3-dimethyl-4-[(1-{6-[5-(1-methylcyclopropoxy)-1H-indazol-3-yl]pyrimidin-4-yl}piperidin-4-yl)methyl]piperazin-1-yl}methyl)piperidin-1-yl]-2-methyl-1H-1,3-benzodiazol-1-yl}piperidine-2,6-dione] | –
64 | 64 | 1 | 1 | CC1(Oc2ccc3[nH]nc(-c4cc(N5CCC(CN6CCN(CC7CCN(c8ccc9c(c8)ncn9C8CCC(=O)NC8=O)CC7)CC6(C)C)CC5)ncn4)c3c2)CC1 (stereo not shown) [Compound 13, 3-{5-[4-({3,3-dimethyl-4-[(1-{6-[5-(1-methylcyclopropoxy)-1H-indazol-3-yl]pyrimidin-4-yl}piperidin-4-yl)methyl]piperazin-1-yl}methyl)piperidin-1-yl]-1H-1,3-benzodiazol-1-yl}piperidine-2,6-dione] | –
58 | 58 | 0.22 | 0.22 | Cn1c(=O)n(C2CCC(=O)NC2=O)c2ccc(N3CCC(CN4CCN(CC5CCN(c6cc(-c7n[nH]c8ccc(OC9(C)CC9)cc78)ncn6)CC5)C(C)(C)C4)CC3)cc21 (stereo not shown) [Compound 14, 3-{5-[4-({3,3-dimethyl-4-[(1-{6-[5-(1-methylcyclopropoxy)-1H-indazol-3-yl]pyrimidin-4-yl}piperidin-4-yl)methyl]piperazin-1-yl}methyl)piperidin-1-yl]-3-methyl-2-oxo-2,3-dihydro-1H-1,3-benzodiazol-1-yl}piperidine-2,6-dione] | –
64 | 64 | 0.17 | 0.17 | Cn1c(=O)n(C2CCC(=O)NC2=O)c2ccc(N3CCC(CN4CCN(CC5CCN(c6cc(-c7n[nH]c8ccc(OC9(C)CC9)cc78)ncn6)CC5)CC4)CC3)cc21 (stereo not shown) [Compound 12, 3-{3-methyl-5-[4-({4-[(1-{6-[5-(1-methylcyclopropoxy)-1H-indazol-3-yl]pyrimidin-4-yl}piperidin-4-yl)methyl]piperazin-1-yl}methyl)piperidin-1-yl]-2-oxo-2,3-dihydro-1H-1,3-benzodiazol-1-yl}piperidine-2,6-dione] | –
